Experimental data published in US8263608B2, “Melanocortin receptor-specific spiro-piperidine compounds” (Palatin Technologies, Inc., priority 2008, dated 2012).

Molecular target: T1, MC1-R (Homo sapiens, UniProt Q01726)
T1 construct: or, for MC1-R, in HBL cells; endogenous in cells; host or cells: HBL cells
Experiment: Assay for agonist activity: intracellular cAMP accumulation (functional assay)
Type: cell-based
Details: functional assays at MC1-R; for EC50: HBL cells that express MC1-R, cAMP; for Emax: maximum efficacy compared to reference agonist NDP-α-MSH
Protocol: Accumulation of intracellular cAMP is examined as a measure of the ability of the test compounds to elicit a functional response in HEK-293 cells that express MC4-R, or, for MC1-R, in HBL cells. Confluent HEK-293 cells that express recombinant hMC4-R, or HBL cells that express MC1-R, are detached from culture plates by incubation in enzyme-free cell dissociation buffer. Dispersed cells are suspended in Earle's Balanced Salt Solution containing 10 mM HEPES (pH 7.5), 1 mM MgCl2, 1 mM glutamine, 0.5% albumin and 0.3 mM 3-isobutyl-1-methyl-xanthine (IBMX), a phosphodiesterase inhibitor. The cells are plated in 96-well plates at a density of 0.5 x 10^5 cells per well and pre-incubated for 30 minutes. Cells are exposed for 1 hour at 37° C. to test compounds dissolved in DMSO (final DMSO concentration of 1%) at a concentration range of 0.05-5000 nM in a total assay volume of 200 μL. NDP-α-MSH is used as the reference agonist. At the end of the incubation period, cells are disrupted by the addition of 50 μL of lysis buffer (cAMP EIA kit, Amersham) followed by vigorous pipetting. Levels of cAMP in the lysates are determined using a cAMP EIA kit (Amersham). Data analysis is performed by nonlinear regression analysis with Graph-Pad Prism® software. The maximum efficacies of the test compounds are compared to that achieved by the reference melanocortin agonist NDP-α-MSH.

T1 sequence (Q01726 whole entry): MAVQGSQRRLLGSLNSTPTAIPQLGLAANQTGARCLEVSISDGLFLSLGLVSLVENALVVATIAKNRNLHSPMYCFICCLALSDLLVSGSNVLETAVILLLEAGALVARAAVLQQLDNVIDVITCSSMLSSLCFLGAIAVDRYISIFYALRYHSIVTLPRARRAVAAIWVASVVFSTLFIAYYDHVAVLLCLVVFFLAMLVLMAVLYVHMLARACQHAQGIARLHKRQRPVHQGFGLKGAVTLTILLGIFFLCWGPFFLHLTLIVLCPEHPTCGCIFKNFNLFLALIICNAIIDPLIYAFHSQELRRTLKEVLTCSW

Structure (SMILES)	functional status at MC1-R	EC50	Emax
COC(=O)CN1CN(c2ccccc2)C2(CCN(C(=O)[C@@H](Cc3ccc(OC)cc3)NC(=O)CCc3cnc[nH]3)CC2)C1=O [Example 137, {8-[(R)-2-(3-3H-Imidazol-4-yl-propionylamino)-3-(4-methoxy-phenyl)-propionyl]-4-oxo-1-phenyl-1,3,8-triaza-spiro[4.5]dec-3-yl}-acetic acid methyl ester]	partial agonist	38 nM	56%
COC(=O)CN1CN(c2ccccc2)C2(CCN(C(=O)[C@@H](Cc3ccc(OC)cc3)NC(=O)CCCCN)CC2)C1=O [Example 138, {8-[(R)-2-(5-Amino-pentanoylamino)-3-(4-methoxy-phenyl)-propionyl]-4-oxo-1-phenyl-1,3,8-triaza-spiro[4.5]dec-3-yl}-acetic acid methyl ester]	partial agonist	340 nM	44%
COc1ccc(C[C@@H](NC(=O)[C@@H](N)Cc2cncn2C)C(=O)N2CCC3(CC2)C(=O)N(C)CN3c2ccccc2)cc1 [Example 139, (S)-2-Amino-N-[(R)-1-(4-methoxy-benzyl)-2-(3-methyl-4-oxo-1-phenyl-1,3,8-triaza-spiro[4.5]dec-8-yl)-2-oxo-ethyl]-3-(3-methyl-3H-imidazol-4-yl)-propionamide]	partial agonist	177 nM	45%
CCN1CN(c2ccccc2)C2(CCN(C(=O)[C@@H](Cc3ccc(OC)cc3)NC(=O)[C@@H](N)Cc3cncn3C)CC2)C1=O [Example 140, (S)-2-Amino-N-[(R)-2-(3-ethyl-4-oxo-1-phenyl-1,3,8-triaza-spiro[4.5]dec-8-yl)-1-(4-methoxy-benzyl)-2-oxo-ethyl]-3-(3-methyl-3H-imidazol-4-yl)-propionamide]	partial agonist	25 nM	42%
COc1ccc(C[C@@H](NC(=O)[C@@H](N)Cc2cncn2C)C(=O)N2CCC3(CC2)C(=O)N(C(C)C)CN3c2ccccc2)cc1 [Example 141, (S)-2-Amino-N-[(R)-2-(3-isopropyl-4-oxo-1-phenyl-1,3,8-triaza-spiro[4.5]dec-8-yl)-1-(4-methoxy-benzyl)-2-oxo-ethyl]-3-(3-methyl-3H-imidazol-4-yl)-propionamide]	partial agonist	6 nM	45%
CCCCN1CN(c2ccccc2)C2(CCN(C(=O)[C@@H](Cc3ccc(OC)cc3)NC(=O)[C@@H](N)Cc3cncn3C)CC2)C1=O [Example 142, (S)-2-Amino-N-[(R)-2-(3-butyl-4-oxo-1-phenyl-1,3,8-triaza-spiro[4.5]dec-8-yl)-1-(4-methoxy-benzyl)-2-oxo-ethyl]-3-(3-methyl-3H-imidazol-4-yl)-propionamide]	partial agonist	20 nM	43%
COc1ccc(C[C@@H](NC(=O)[C@@H](N)Cc2cncn2C)C(=O)N2CCC3(CC2)C(=O)N(Cc2ccccc2)CN3c2ccccc2)cc1 [Example 144, (S)-2-Amino-N-[(R)-2-(3-benzyl-4-oxo-1-phenyl-1,3,8-triaza-spiro[4.5]dec-8-yl)-1-(4-methoxy-benzyl)-2-oxo-ethyl]-3-(3-methyl-3H-imidazol-4-yl)-propionamide]	partial agonist	17 nM	46%
COc1ccc(C[C@@H](NC(=O)CCc2cnc[nH]2)C(=O)N2CCC3(CC2)C(=O)N(CCO)CN3c2ccccc2)cc1 [Example 149, N-[(R)-2-[3-(2-Hydroxy-ethyl)-4-oxo-1-phenyl-1,3,8-triaza-spiro[4.5]dec-8-yl]-1-(4-methoxy-benzyl)-2-oxo-ethyl]-3-(3H-imidazol-4-yl)-propionamide]	partial agonist	25 nM	60%
COc1ccc(C[C@@H](NC(=O)CCc2cnc[nH]2)C(=O)N2CCC3(CC2)C(=O)N(C(C)C)CN3c2ccccc2)cc1 [Example 150, 3-(3H-Imidazol-4-yl)-N-[(R)-2-(3-isopropyl-4-oxo-1-phenyl-1,3,8-triaza-spiro[4.5]dec-8-yl)-1(4-methoxy-benzyl)-2-oxo-ethyl]-propionamide]	partial agonist	3 nM	71%
COc1ccc(C[C@@H](NC(=O)[C@@H](N)Cc2cncn2C)C(=O)N2CCC3(CC2)C(=O)N(C2CCCC2)CN3c2ccccc2)cc1 [Example 151, (S)-2-Amino-N-[(R)-2-(3-cyclopentyl-4-oxo-1-phenyl-1,3,8-triaza-spiro[4.5]dec-8-yl)-1-(4-methoxy-benzyl)-2-oxo-ethyl]-3-(3-methyl-3H-imidazol-4-yl)-propionamide]	partial agonist	7 nM	37%
COc1ccc(C[C@@H](NC(=O)CCc2cnc[nH]2)C(=O)N2CCC3(CC2)C(=O)N(C2CCCC2)CN3c2ccccc2)cc1 [Example 152, N-[(R)-2-(3-Cyclopentyl-4-oxo-1-phenyl-1,3,8-triaza-spiro[4.5]dec-8-yl)-1-(4-methoxy-benzyl)-2-oxo-ethyl]-3-(3H-imidazol-4-yl)-propionamide]	partial agonist	2 nM	50%
COc1ccc(C[C@@H](NC(=O)CCc2c[nH]cn2)C(=O)N2CCC3(CC2)C(=O)N(Cc2ccccc2)CN3c2ccccc2)cc1 [Example 153, N-[(R)-2-(3-Benzyl-4-oxo-1-phenyl-1,3,8-triaza-spiro[4.5]dec-8-yl)-1-(4-methoxy-benzyl)-2-oxo-ethyl]-3-(1H-imidazol-4-yl)-propionamide]	partial agonist	12 nM	54%
COc1ccc(C[C@@H](NC(=O)CCc2c[nH]cn2)C(=O)N2CCC3(CC2)C(=O)N(Cc2ccccc2Cl)CN3c2ccccc2)cc1 [Example 154, N-[(R)-2-[3-(2-Chloro-benzyl)-4-oxo-1-phenyl-1,3,8-triaza-spiro[4.5]dec-8-yl]-1-(4-methoxy-benzyl)-2-oxo-ethyl]-3-(1H-imidazol-4-yl)-propionamide]	partial agonist	26 nM	50%
COc1ccc(C[C@@H](NC(=O)CCc2c[nH]cn2)C(=O)N2CCC3(CC2)C(=O)N(Cc2cccc(Cl)c2)CN3c2ccccc2)cc1 [Example 155, N-[(R)-2-[3-(3-Chloro-benzyl)-4-oxo-1-phenyl-1,3,8-triaza-spiro[4.5]dec-8-yl]-1-(4-methoxy-benzyl)-2-oxo-ethyl]-3-(1H-imidazol-4-yl)-propionamide]	partial agonist	14 nM	42%
COc1ccc(C[C@@H](NC(=O)CCc2c[nH]cn2)C(=O)N2CCC3(CC2)C(=O)N(Cc2ccc(Cl)cc2)CN3c2ccccc2)cc1 [Example 156, N-[(R)-2-[3-(4-Chloro-benzyl)-4-oxo-1-phenyl-1,3,8-triaza-spiro[4.5]dec-8-yl]-1-(4-methoxy-benzyl)-2-oxo-ethyl]-3-(1H-imidazol-4-yl)-propionamide]	partial agonist	23 nM	45%
COc1ccc(C[C@@H](NC(=O)CCc2c[nH]cn2)C(=O)N2CCC3(CC2)C(=O)N(Cc2ccccn2)CN3c2ccccc2)cc1 [Example 157, 3-(1H-Imidazol-4-yl)-N-[(R)-1-(4-methoxy-benzyl)-2-oxo-2-(4-oxo-1-phenyl-3-pyridin-2-ylmethyl-1,3,8-triaza-spiro[4.5]dec-8-yl)-ethyl]-propionamide]	partial agonist	41 nM	38%
COc1ccc(C[C@@H](NC(=O)CCc2c[nH]cn2)C(=O)N2CCC3(CC2)C(=O)N(Cc2cccnc2)CN3c2ccccc2)cc1 [Example 158, 3-(1H-Imidazol-4-yl)-N-[(R)-1-(4-methoxy-benzyl)-2-oxo-2-(4-oxo-1-phenyl-3-pyridin-3-ylmethyl-1,3,8-triaza-spiro[4.5]dec-8-yl)-ethyl]-propionamide]	partial agonist	20 nM	45%
COc1ccc(C[C@@H](NC(=O)CCc2cnc[nH]2)C(=O)N2CCC3(CC2)C(=O)N(C2CCC2)CN3c2ccccc2)cc1 [Example 159, N-[(R)-2-(3-Cyclobutyl-4-oxo-1-phenyl-1,3,8-triaza-spiro[4.5]dec-8-yl)-1-(4-methoxy-benzyl)-2-oxo-ethyl]-3-(3H-imidazol-4-yl)-propionamide]	partial agonist	6 nM	49%
COc1ccc(C[C@@H](NC(=O)C[C@H]2Cc3ccccc3CN2)C(=O)N2CCC3(CC2)C(=O)N(C(C)C)CN3c2ccccc2)cc1 [Example 164, N-[(R)-2-(3-Isopropyl-4-oxo-1-phenyl-1,3,8-triaza-spiro[4.5]dec-8-yl)-1-(4-methoxy-benzyl)-2-oxo-ethyl]-2-(R)-1,2,3,4-tetrahydro-isoquinolin-3-yl-acetamide]	partial agonist	0.7 nM	75%
